Patent publication US7867993B2, “Preparation containing oxidized flavonoid derivatives” (Merck Patent GmbH, priority 2005, dated 2011)
≈ marks a conversion by molar mass, not a printed value. Like-named read-outs stand apart in the source and are kept apart here.

What was measured:
[1] = Solubility in water and in ethanol; type: physicochemical
Text: The solubilities of quercetin in water and in ethanol are, by contrast, only 0.04 g/l and 15.8 g/l respectively.

[2] = compared with the other investigated hydroxyflavones, over the entire pH range; cited from earlier work

| Structure (SMILES) | solubility ([1]; 25 °C, organic solvent or mixture) | solubility ([1]; 25 °C, water) | solubility ([1]; organic solvent or mixture, at 25° C. in ethanol, read-out: solubility in ethanol) | antioxidative action [2] |
| --- | --- | --- | --- | --- |
| CCCCOC1(c2ccc(O)c(O)c2)Oc2cc(O)cc(O)c2C(=O)C1(O)O (stereo not shown) [2-butoxy-2-(3,4-dihydroxyphenyl)-3,3,5,7-tetrahydroxychroman-4-one] | 855 mg/mL (≈ 2180 mM) | 2.9 mg/mL (≈ 7.39 mM) | – | – |
| O=c1c(O)c(-c2ccc(O)c(O)c2)oc2cc(O)cc(O)c12 [quercetin, 3,3′,4′,5,7-pentahydroxyflavone] | – | – | 15.8 mg/mL (≈ 52.3 mM) | highest activity |
